Data reported in patent US20250304551A1 (SHANGHAI APEIRON THERAPEUTICS COMPANY LIMITED, priority 2022, published 2025).

Assays:
[1] = target: T1, Human KIF18A (amino acid sequence 1-417) (Homo sapiens, UniProt Q8NI77); assay: Enzyme activity detection experiment (ADP-Glo, KIF18A with tubulin and ATP); assay type: biochemical; settings: tubulin 60 μg/mL, ATP 25 μM, KIF18A protein 2.5 nM, 120 minutes at ambient temperature, ADP-Glo chemiluminescence
T1 construct: purchased Viva Biotech (Shanghai) Ltd
Outline: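 KIF18A (2.5 nM) was incubated with tubulin (60 μg/mL as added), ATP (25 μM) and serially diluted compound for 120 min at ambient temperature. ADP formed was detected by ADP-Glo: reagent for 30 min, then detection reagent for 30 min in the dark, with chemiluminescence read-out.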

HT29 cells = assay: CyQuant cell proliferation activity test, HT29; assay type: cell-based; settings: Homo sapiens, HT-29, 72 h, HT29 2000 cells per well, 3 days incubation, initial concentration 3000 nM, IC50 by XLFIT, read-out: HT-29 Cell Viability_IC50_nM
Outline: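 HT29 cells (2000/well, RPMI-1640 with 10% FBS) were plated overnight, then exposed to compound for 3 days at 37 °C, 5% CO2. Dosing was 9 concentrations, 3-fold dilutions from 3000 nM, in 0.20% DMSO. Proliferation was read with CyQuant reagent after 1 h, and IC50 derived from the curves.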

OVCAR3 cells = assay: Cell proliferation activity test, OVCAR3 (CyQUANT Direct); assay type: cell-based; settings: Homo sapiens, OVCAR-3, 72 h, 3 days incubation, CyQUANT fluorescence detection, read-out: OVCAR-3 Cell Viability_IC50_nM
Outline: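 OVCAR3 cells seeded overnight, then exposed to compounds at 0-10 μM final (0.20% DMSO) for 3 days at 37° C. Cell number read by CyQUANT Direct fluorescence after 60 min at 37° C.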

T1 sequence (Q8NI77 1-417): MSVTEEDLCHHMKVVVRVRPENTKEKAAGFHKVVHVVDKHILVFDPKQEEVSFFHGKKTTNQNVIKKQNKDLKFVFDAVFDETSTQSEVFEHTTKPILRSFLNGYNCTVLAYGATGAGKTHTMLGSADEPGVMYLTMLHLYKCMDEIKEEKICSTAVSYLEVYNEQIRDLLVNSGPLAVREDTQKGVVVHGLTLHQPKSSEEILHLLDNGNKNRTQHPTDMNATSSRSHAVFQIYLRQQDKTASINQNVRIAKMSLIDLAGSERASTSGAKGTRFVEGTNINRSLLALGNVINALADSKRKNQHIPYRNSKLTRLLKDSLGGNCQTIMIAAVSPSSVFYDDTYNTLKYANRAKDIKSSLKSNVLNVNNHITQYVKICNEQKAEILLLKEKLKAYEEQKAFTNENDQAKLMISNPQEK
T1 sequence (Q2XVP4 whole entry partner): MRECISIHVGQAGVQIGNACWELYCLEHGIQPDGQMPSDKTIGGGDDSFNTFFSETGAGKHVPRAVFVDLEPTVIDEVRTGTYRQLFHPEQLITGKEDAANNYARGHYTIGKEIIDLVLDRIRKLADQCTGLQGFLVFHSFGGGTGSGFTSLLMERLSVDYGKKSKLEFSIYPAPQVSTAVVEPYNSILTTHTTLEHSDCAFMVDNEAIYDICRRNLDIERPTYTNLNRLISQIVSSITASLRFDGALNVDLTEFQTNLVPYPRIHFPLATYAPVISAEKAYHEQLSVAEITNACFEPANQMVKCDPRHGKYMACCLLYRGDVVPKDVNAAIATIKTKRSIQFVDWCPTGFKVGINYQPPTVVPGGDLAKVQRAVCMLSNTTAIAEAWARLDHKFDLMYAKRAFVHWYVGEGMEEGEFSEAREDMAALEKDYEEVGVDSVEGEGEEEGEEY
T1 sequence (P02554 whole entry partner): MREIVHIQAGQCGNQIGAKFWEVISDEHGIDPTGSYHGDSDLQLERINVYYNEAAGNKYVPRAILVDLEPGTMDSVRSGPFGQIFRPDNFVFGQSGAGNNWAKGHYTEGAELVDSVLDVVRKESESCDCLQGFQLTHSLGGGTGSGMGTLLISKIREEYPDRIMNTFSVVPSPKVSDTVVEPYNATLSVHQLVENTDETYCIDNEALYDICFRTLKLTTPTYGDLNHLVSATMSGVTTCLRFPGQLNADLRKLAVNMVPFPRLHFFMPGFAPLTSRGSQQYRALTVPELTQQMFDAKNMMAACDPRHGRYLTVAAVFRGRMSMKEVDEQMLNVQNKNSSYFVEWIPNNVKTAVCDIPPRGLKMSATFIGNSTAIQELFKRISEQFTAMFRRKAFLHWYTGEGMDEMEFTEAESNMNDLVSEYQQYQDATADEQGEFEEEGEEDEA

Row | IC50 [1] | IC50 (HT29 cells) | IC50 (OVCAR3 cells) | Compound
1 | 278 nM | 126 nM | 87 nM | Cc1cc(-n2cc(-c3ccc(NS(=O)(=O)CCO)cc3N3CCC4(CC3)CC4)nn2)cc(N2CCC(F)(F)CC2)n1 [Example 91]
2 | 232 nM | 50 nM | 93 nM | Cc1cc(-n2cc(-c3ccc(NS(=O)(=O)[C@H](C)CO)cc3N3CCC4(CC3)CC4)nn2)nc(N2CCC(F)(F)CC2)n1 [Example 92, (2R)—N-(3-{6-azaspiro[2.5]octan-6-yl}-4-{1-[2-(4,4-difluoropiperidin-1-yl)-6-methylpyrimidin-4-yl]-1H-1,2,3-triazol-4-yl}phenyl)-1-hydroxypropane-2-sulfonamide]
3 | 315 nM | 83 nM | 85 nM | Cc1cc(-n2cc(-c3ccc(NS(=O)(=O)[C@@H](C)CO)cc3N3CCC4(CC3)CC4)nn2)nc(N2CCC(F)(F)CC2)n1 [Example 93, (2S)—N-(3-{6-azaspiro[2.5]octan-6-yl}-4-{1-[2-(4,4-difluoropiperidin-1-yl)-6-methylpyrimidin-4-yl]-1H-1,2,3-triazol-4-yl}phenyl)-1-hydroxypropane-2-sulfonamide]
4 | 227 nM | 57 nM | 92 nM | O=S(=O)(CCO)Nc1ccc(-c2cn(-c3cc(N4CCC(F)(F)CC4)c4ncccc4c3)nn2)c(N2CCC3(CC2)CC3)c1 [Example 94, N-(4-(1-(8-(4,4-difluoropiperidin-1-yl)quinolin-6-yl)-1H-1,2,3-triazol-4-yl)-3-(6-azaspiro[2.5]octan-6-yl)phenyl)-2-hydroxyethane-1-sulfonamide]
